{"source": "patent US5883097A", "about": "“Soluble azole antifungal salt” (Schering Corporation, priority 1998, dated 1999)", "key": {"[1]": {"assay": "Solubility in aqueous lactic acid solution / pharmaceutically acceptable carriers", "type": "physicochemical"}, "[2]": {"assay": "In vivo conversion into the alcohol of formula II"}, "Solubility in water": {"assay": "Solubility in water", "type": "physicochemical", "experimental": "(§1) Only 1-2 mg of the hydrochloride salt dissolves in 1 mL of water, and unacceptably large volumes of water would be required for delivery of an effective dose. Furthermore, only in an aqueous hydrochloric acid solution at the physiologically unacceptable pH of 1-1.5 does enough of the hydrochloride acid addition salt of the compound of formula I dissolve to provide a suitably concentrated solution useful for intravenous use."}, "[3]": {"assay": "Solubility in aqueous hydrochloric acid solution", "type": "physicochemical", "conditions": "only in an aqueous hydrochloric acid solution; physiologically unacceptable pH", "experimental": "as §1"}, "[4]": {"tested_on": "cytochrome P-450 liver drug metabolizing enzymes", "assay": "Induction of cytochrome P-450 liver drug metabolizing enzymes, in vivo rat model", "conditions": "oral administration"}, "[5]": {"assay": "Serum half life and tissue distribution following O.D. dosing"}, "[6]": {"assay": "Serum levels following oral dosing in rats", "conditions": "methyl cellulose formulation"}, "[7]": {"assay": "Serum levels following oral dosing in monkeys", "conditions": "methyl cellulose formulation"}, "Aspergillus": {"tested_on": "Aspergillus", "conditions": "SDB, geometric mean MIC and MFC"}, "[8]": {"assay": "Serum levels following oral dosing in mice", "conditions": "methyl cellulose formulation"}, "[9]": {"assay": "Serum levels following oral dosing in dogs", "conditions": "methyl cellulose formulation"}}, "note": "Structures can show the parent of a compound that is named as a salt.", "data": [{"smiles": "CCC(C(C)OC(=O)CN)n1ncn(-c2ccc(N3CCN(c4ccc(OCC5COC(Cn6cncn6)(c6ccc(F)cc6F)C5)cc4)CC3)cc2)c1=O", "note": "(single isomer, unassigned; (-))", "values": [{"measurement": "solubility in pharmaceutically acceptable carriers, especially aqueous lactic acid solutions", "setting": "[1]; aqueous lactic acid solutions", "result": "surprisingly soluble"}, {"measurement": "solubility in aqueous lactic acid solution at physiologically acceptable pH", "setting": "[1]; pH of at least about 3 to 3.5", "result": "soluble"}, {"measurement": "in vivo conversion into the corresponding alcohol of formula II", "setting": "[2]", "result": "readily convertible in vivo"}, {"measurement": "solubility in water", "setting": "Solubility in water; listed as lactic acid addition salt", "result": "water soluble"}]}, {"smiles": "CCC(C(C)OC(=O)CN)n1ncn(-c2ccc(N3CCN(c4ccc(OCC5COC(Cn6cncn6)(c6ccc(F)cc6F)C5)cc4)CC3)cc2)c1=O", "note": "(single isomer, unassigned; (-)) [Hydrochloride]", "values": [{"measurement": "solubility in water", "setting": "Solubility in water; Hydrochloride", "result": "sparingly soluble"}, {"measurement": "solubility", "setting": "Solubility in water; read-out: amount of salt dissolving in 1 mL of water", "result": "1000 to 2000", "unit": "µg/mL"}, {"measurement": "pH of aqueous hydrochloric acid at which enough salt dissolves to provide a suitably concentrated solution for intravenous use", "setting": "[3]", "result": "1-1.5"}]}, {"smiles": "CCC(C(C)O)n1ncn(-c2ccc(N3CCN(c4ccc(OCC5COC(Cn6cncn6)(c6ccc(F)cc6F)C5)cc4)CC3)cc2)c1=O", "note": "[compound of formula II, -(2 R-cis)-4-[4-[4-[4-[[-5-(2,4-Difluorophenyl)-tetrahydro-5-(1 H-1,2,4-triazol-1-ylmethyl)furan-3-yl]methoxy]phenyl]-1-piperazinyl]phenyl]-2-4-dihydro-2-[(1 S)-ethyl-2(S)-hydroxypropyl]-3 H-1,2,4-triazol-3-one]", "values": [{"measurement": "induction of cytochrome P-450 liver drug metabolizing enzymes", "setting": "[4]", "result": "not an inducer"}, {"measurement": "serum half lives", "setting": "[5]", "result": "very long serum half lives"}, {"measurement": "tissue distribution", "setting": "[5]", "result": "good tissue distribution"}, {"measurement": "serum levels compared to azoles of similar structure, rats", "setting": "[6]", "result": "consistently higher serum levels"}, {"measurement": "serum levels compared to azoles of similar structure, monkeys", "setting": "[7]", "result": "consistently higher serum levels"}, {"measurement": "in vitro antifungal activity against 37 species of Aspergillus compared to fluconazole", "setting": "Aspergillus", "result": "superior antifungal in vitro activity"}, {"measurement": "serum levels compared to azoles of similar structure, mice", "setting": "[8]", "result": "consistently higher serum levels"}, {"measurement": "serum levels compared to azoles of similar structure, dogs", "setting": "[9]", "result": "consistently higher serum levels"}]}]}
